The values that follow come from patent US9067977B2, “Peptides derivatized with A-B-C-D- and their therapeutical use” (Novo Nordisk A/S, priority 2007, dated 2015).

The structures appear in SMILES notation. pEC50: −log10 of the molar value. Starred links: 1 amine or outer side, 2 acyl side, 3 side chain; linkers in the order of their positions; H or OH if unused. Residues, ends and D or L forms follow the SMILES beside them. Groups on a side chain read outwards from the residue. *: point of attachment. X3 = O=C(O)CCCCCCCCCCCCCCCCCCC(=O)NC[C@H]1CC[C@H](C(=O)N[C@@H](CCC(=O)NCCOCCOCC(=O)NCCOCCOCC(=O)N[C@@H](CCCCN*)C(=O)O)C(=O)O)CC1; C20 diacid = O=C(O)CCCCCCCCCCCCCCCCCCC(=O)*; γGlu = O=C(O)[C@H](CCC(=O)[*:2])N[*:1]; Desaminohistidyl = O=C(CCc1c[nH]cn1)*; Inp = O=C(O)C1CCNCC1 Bounds are passed on as bounds.

What is called pEC50 is the negative decadic logarithm of the EC50, by convention in mol/L. A lower pEC50 goes with a high EC50. The EC50 is the concentration that produces a half-maximal response. Higher therefore signals a less potent agent.

The target in the first data set is human serum albumin (HSA) (Homo sapiens, UniProt P02768). As to the kind of experiment: Albumin binding affinity, competition scintillation proximity assay.
human serum albumin (HSA), sequence (P02768 25-609): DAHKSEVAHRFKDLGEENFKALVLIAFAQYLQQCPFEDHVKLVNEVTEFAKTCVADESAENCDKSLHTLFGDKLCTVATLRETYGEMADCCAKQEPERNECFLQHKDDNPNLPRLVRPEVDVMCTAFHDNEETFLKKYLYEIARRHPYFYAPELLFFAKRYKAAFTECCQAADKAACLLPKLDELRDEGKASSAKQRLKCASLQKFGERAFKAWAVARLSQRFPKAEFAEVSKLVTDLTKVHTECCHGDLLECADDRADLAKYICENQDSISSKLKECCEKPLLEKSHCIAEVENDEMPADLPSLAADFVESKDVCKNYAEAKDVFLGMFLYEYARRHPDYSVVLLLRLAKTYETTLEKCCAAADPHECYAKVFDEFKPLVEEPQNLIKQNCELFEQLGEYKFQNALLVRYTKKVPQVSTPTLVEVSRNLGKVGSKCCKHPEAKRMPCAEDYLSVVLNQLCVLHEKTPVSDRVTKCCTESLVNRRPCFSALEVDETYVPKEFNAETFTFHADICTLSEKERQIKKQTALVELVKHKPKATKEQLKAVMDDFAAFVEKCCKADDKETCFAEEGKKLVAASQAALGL
Settings: not given
(In general: In a scintillation proximity assay essentially only radioactivity close to the scintillant gives light.)
Consider `CC[C@H](C)[C@H](NC(=O)[C@H](Cc1ccccc1)NC(=O)[C@H](CCC(=O)O)NC(=O)[C@H](CCCNC(=N)N)NC(=O)[C@H](C)NC(=O)[C@H](C)NC(=O)[C@H](CCC(N)=O)NC(=O)[C@H](CCC(=O)O)NC(=O)[C@H](CCC(=O)O)NC(=O)[C@H](CC(C)C)NC(=O)[C@H](Cc1ccc(O)cc1)NC(=O)[C@H](CO)NC(=O)[C@H](CO)NC(=O)[C@@H](NC(=O)[C@H](CC(=O)O)NC(=O)[C@H](CO)NC(=O)[C@@H](NC(=O)[C@H](Cc1ccccc1)NC(=O)[C@@H](NC(=O)CNC(=O)[C@H](CCC(=O)O)NC(=O)[C@H](C)NC(=O)CCc1c[nH]cn1)[C@@H](C)O)[C@@H](C)O)C(C)C)C(=O)N[C@@H](C)C(=O)N[C@@H](Cc1c[nH]c2ccccc12)C(=O)N[C@@H](CC(C)C)C(=O)N[C@H](C(=O)N[C@@H](CCCNC(=N)N)C(=O)NCC(=O)N[C@@H](CCCNC(=N)N)C(=O)NCCCC[C@H](NC(=O)COCCOCCNC(=O)COCCOCCNC(=O)CC[C@H](NC(=O)[C@H]1CC[C@H](CNC(=O)CCCCCCCCCCCCCCCCCCC(=O)O)CC1)C(=O)O)C(=O)O)C(C)C` [Example 53, N-alpha37-[2-(2-{2-[2-(2-{2-[(S)-4-Carboxy-4-({trans-4-[(19-carboxynonadecanoylamino)methyl]cyclohexanecarbonyl}amino)butyrylamino]ethoxy}ethoxy)acetylamino]ethoxy}ethoxy)acetyl][DesaminoHis7,Glu22,Arg26,Arg34,epsilon-Lys37]GLP-1-(7-37)] (Desaminohistidyl-AEGTFTSDVSSYLEEQAAREFIAWLVRGR-X3), for which the pEC50 is 7.00 to 9.00. Compound `CC[C@H](C)[C@H](NC(=O)[C@H](Cc1ccccc1)NC(=O)[C@H](CCC(=O)O)NC(=O)[C@H](CCCCNC(=O)COCCOCCNC(=O)CC[C@H](NC(=O)CC[C@H](NC(=O)CCCCCNC(=O)CCCS(=O)(=O)NC(=O)CCCCCCCCCCCCCCCc1nnn[nH]1)C(=O)O)C(=O)O)NC(=O)[C@H](C)NC(=O)[C@H](C)NC(=O)[C@H](CCC(N)=O)NC(=O)CNC(=O)[C@H](CCC(=O)O)NC(=O)[C@H](CC(C)C)NC(=O)[C@H](Cc1ccc(O)cc1)NC(=O)[C@H](CO)NC(=O)[C@H](CO)NC(=O)[C@@H](NC(=O)[C@H](CC(=O)O)NC(=O)[C@H](CO)NC(=O)[C@@H](NC(=O)[C@H](Cc1ccccc1)NC(=O)[C@@H](NC(=O)CNC(=O)[C@H](CCC(=O)O)NC(=O)C(C)(C)NC(=O)[C@@H](N)Cc1c[nH]cn1)[C@@H](C)O)[C@@H](C)O)C(C)C)C(=O)N[C@@H](C)C(=O)N[C@@H](Cc1c[nH]c2ccccc12)C(=O)N[C@@H](CC(C)C)C(=O)N[C@H](C(=O)N[C@@H](CCCNC(=N)N)C(=O)NCC(=O)N[C@@H](CCCNC(=N)N)C(N)=O)C(C)C` [Example 41, N-epsilon26-[2-(2-{2-[(S)-4-Carboxy-4-((S)-4-carboxy-4-{6-[4-(16-(1H-tetrazol-5-yl)hexadecanoylsulfamoyl)butyrylamino]hexanoylamino}butyrylamino)butyrylamino]ethoxy}ethoxy)acetyl][Aib8,Arg34]GLP-1-(7-36)amide] showed a pEC50 of 6.52 to 6.82. `CC[C@H](C)[C@H](NC(=O)[C@H](Cc1ccccc1)NC(=O)[C@H](CCC(=O)O)NC(=O)[C@H](CCCNC(=N)N)NC(=O)[C@H](C)NC(=O)[C@H](C)NC(=O)[C@H](CCC(N)=O)NC(=O)[C@H](CCC(=O)O)NC(=O)[C@H](CCC(=O)O)NC(=O)[C@H](CC(C)C)NC(=O)[C@H](Cc1ccc(O)cc1)NC(=O)[C@H](CO)NC(=O)[C@H](CO)NC(=O)[C@@H](NC(=O)[C@H](CC(=O)O)NC(=O)[C@H](CO)NC(=O)[C@@H](NC(=O)[C@H](Cc1ccccc1)NC(=O)[C@@H](NC(=O)CNC(=O)[C@H](CCC(=O)O)NC(=O)C(C)(C)NC(=O)[C@@H](N)Cc1c[nH]cn1)[C@@H](C)O)[C@@H](C)O)C(C)C)C(=O)N[C@@H](C)C(=O)N[C@@H](Cc1c[nH]c2ccccc12)C(=O)N[C@@H](CC(C)C)C(=O)N[C@H](C(=O)N[C@@H](CCCNC(=N)N)C(=O)NCC(=O)N[C@@H](CCCNC(=N)N)C(=O)N[C@@H](CCCCNC(=O)COCCOCCNC(=O)COCCOCCNC(=O)CC[C@H](NC(=O)[C@H]1CC[C@H](CNC(=O)CCCCCCCCCCCCCCCCCCC(=O)O)CC1)C(=O)O)C(N)=O)C(C)C` [Example 23, N-epsilon37-[2-(2-{2-[2-(2-{2-[(S)-4-Carboxy-4-({trans-4-[(19-carboxy-nonadecanoylamino)methyl]cyclohexanecarbonyl}amino)butyrylamino]ethoxy}ethoxy)acetylamino]ethoxy}ethoxy)acetyl][Aib8,Glu22,Arg26,Arg34,Lys37]GLP-1-(7-37)amide] gave a pEC50 of 5.70 to 6.10. Turning to `CC[C@H](C)[C@H](NC(=O)[C@H](Cc1ccccc1)NC(=O)[C@H](CCC(=O)O)NC(=O)[C@H](CCCNC(=N)N)NC(=O)[C@H](C)NC(=O)[C@H](C)NC(=O)[C@H](CCC(N)=O)NC(=O)CNC(=O)[C@H](CCC(=O)O)NC(=O)[C@H](CC(C)C)NC(=O)[C@H](Cc1ccc(O)cc1)NC(=O)[C@H](CO)NC(=O)[C@H](CO)NC(=O)[C@@H](NC(=O)[C@H](CC(=O)O)NC(=O)[C@H](CO)NC(=O)[C@@H](NC(=O)[C@H](Cc1ccccc1)NC(=O)[C@@H](NC(=O)CNC(=O)[C@H](CCC(=O)O)NC(=O)[C@H](C)NC(=O)CCc1c[nH]cn1)[C@@H](C)O)[C@@H](C)O)C(C)C)C(=O)N[C@@H](C)C(=O)N[C@@H](Cc1c[nH]c2ccccc12)C(=O)N[C@@H](CC(C)C)C(=O)N[C@H](C(=O)N[C@@H](CCCNC(=N)N)C(=O)NCC(=O)N[C@@H](CCCNC(=N)N)C(=O)NCC(=O)N[C@@H](CCCCNC(=O)COCCOCCNC(=O)COCCOCCNC(=O)CC[C@H](NC(=O)C1CCN(C(=O)CCCCCCCCCCCCCCCCCCC(=O)O)CC1)C(=O)O)C(=O)O)C(C)C` [Example 59, [DesaminoHis7,Arg26,34]-GLP-1 (7-37)-Lys(2-{2-[2-(2-{2-[2-((S)-4-Carboxy-4-{[1-(19-carboxynonadecanoyl)piperidine-4-carbonyl]amino}butyrylamino)ethoxy]ethoxy}acetylamino)ethoxy]ethoxy}acetyl) peptide], the pEC50 is less than 5.70.

Take `CC[C@H](C)[C@H](NC(=O)[C@H](Cc1ccccc1)NC(=O)[C@H](CCC(=O)O)NC(=O)[C@H](CCCNC(=N)N)NC(=O)[C@H](C)NC(=O)[C@H](C)NC(=O)[C@H](CCC(N)=O)NC(=O)[C@H](CCC(=O)O)NC(=O)[C@H](CCC(=O)O)NC(=O)[C@H](CC(C)C)NC(=O)[C@H](Cc1ccc(O)cc1)NC(=O)[C@H](CO)NC(=O)[C@H](CO)NC(=O)[C@@H](NC(=O)[C@H](CC(=O)O)NC(=O)[C@H](CO)NC(=O)[C@@H](NC(=O)[C@H](Cc1ccccc1)NC(=O)[C@@H](NC(=O)CNC(=O)[C@H](CCC(=O)O)NC(=O)[C@H](C)NC(=O)CCc1c[nH]cn1)[C@@H](C)O)[C@@H](C)O)C(C)C)C(=O)N[C@@H](C)C(=O)N[C@@H](Cc1c[nH]c2ccccc12)C(=O)N[C@@H](CC(C)C)C(=O)N[C@H](C(=O)N[C@@H](CCCNC(=N)N)C(=O)NCC(=O)N[C@@H](CCCNC(=N)N)C(=O)NCC(=O)N[C@@H](CCCCNC(=O)CC[C@H](NC(=O)C1CCN(C(=O)CCCCCCCCCCCCCCCCCCC(=O)O)CC1)C(=O)O)C(=O)O)C(C)C` [Example 62, [DesaminoHis7,Glu22,Arg26,34]-GLP-1 (7-37)-Lys-((S)-4-Carboxy-4-{[1-(19-carboxy-nonadecanoyl)-piperidine-4-carbonyl]-amino}-butyryl) peptide] (Desaminohistidyl-AEGTFTSDVSSYLEEQAAREFIAWLVRGRGK([γGlu-Inp-C20 diacid])-OH): the pEC50 is 6.10 to 6.52. In turn, `CC[C@H](C)[C@H](NC(=O)[C@H](Cc1ccccc1)NC(=O)[C@H](CCC(=O)O)NC(=O)[C@H](CCCNC(=N)N)NC(=O)[C@H](C)NC(=O)[C@H](C)NC(=O)[C@H](CCC(N)=O)NC(=O)CNC(=O)[C@H](CCC(=O)O)NC(=O)[C@H](CC(C)C)NC(=O)[C@H](Cc1ccc(O)cc1)NC(=O)[C@H](CO)NC(=O)[C@H](CO)NC(=O)[C@@H](NC(=O)[C@H](CC(=O)O)NC(=O)[C@H](CO)NC(=O)[C@@H](NC(=O)[C@H](Cc1ccccc1)NC(=O)[C@@H](NC(=O)CNC(=O)[C@H](CCC(=O)O)NC(=O)[C@H](C)NC(=O)CCc1c[nH]cn1)[C@@H](C)O)[C@@H](C)O)C(C)C)C(=O)N[C@@H](C)C(=O)N[C@@H](Cc1c[nH]c2ccccc12)C(=O)N[C@@H](CC(C)C)C(=O)N[C@H](C(=O)N[C@@H](CCCNC(=N)N)C(=O)NCC(=O)N[C@@H](CCCNC(=N)N)C(=O)N[C@@H](CCCCNC(=O)COCCOCCNC(=O)CC[C@H](NC(=O)CC[C@H](NC(=O)CCCCCCCCCCCNC(=O)CCCS(=O)(=O)NC(=O)CCCCCCCCCCCCCCCc1nnn[nH]1)C(=O)O)C(=O)O)C(N)=O)C(C)C` [Example 50] had a pEC50 of 7.00 to 9.00.

The same data set, now with this note: human, biotinylated human serum albumin on streptavidin-SPA beads, pH 7.4.
`CC[C@H](C)[C@H](NC(=O)[C@H](Cc1cccc(C(F)(F)F)c1)NC(=O)[C@H](CCC(=O)O)NC(=O)[C@H](CCCNC(=N)N)NC(=O)[C@H](C)NC(=O)[C@H](C)NC(=O)[C@H](CCC(N)=O)NC(=O)[C@H](CCC(=O)O)NC(=O)[C@H](CCC(=O)O)NC(=O)[C@H](CC(C)C)NC(=O)[C@H](Cc1ccc(O)cc1)NC(=O)[C@H](CO)NC(=O)[C@H](CO)NC(=O)[C@@H](NC(=O)[C@H](CC(=O)O)NC(=O)[C@H](CO)NC(=O)[C@@H](NC(=O)[C@H](Cc1ccccc1)NC(=O)[C@@H](NC(=O)CNC(=O)[C@H](CCC(=O)O)NC(=O)[C@H](C)NC(=O)CCc1c[nH]cn1)[C@@H](C)O)[C@@H](C)O)C(C)C)C(=O)N[C@@H](C)C(=O)N[C@@H](Cc1c[nH]c2ccccc12)C(=O)N[C@@H](CC(C)C)C(=O)N[C@H](C(=O)N[C@@H](CCCNC(=N)N)C(=O)NCC(=O)N[C@@H](CCCNC(=N)N)C(=O)N[C@@H](CCCCNC(=O)COCCOCCNC(=O)COCCOCCNC(=O)C[C@@H](NC(=O)C1CCN(C(=O)CCCCCCCCCCCCCCCCC(=O)O)CC1)C(=O)O)C(N)=O)C(C)C` [Example 6, N-epsilon37-[2-(2-[2-(2-[2-(2-((R)-3-[1-(17-Carboxyheptadecanoyl)piperidin-4-ylcarbonylamino]3-carboxypropionylamino)ethoxy)ethoxy]acetylamino)ethoxy]ethoxy)acetyl][DesaminoHis7, Glu22 Arg26, Arg 34, Phe(m-CF3)28]GLP-1-(7-37)amide]: the EC50 at 20 h is 800 to 2000 nM.
